Measured values as given in US6534499B2, “N-substituted-N′-substituted urea derivatives and the use thereof as TNF-α production inhibitory agents” (Santen Pharmaceutical Co., Ltd., priority 1999, dated 2003).

Tests used:
[1] = system: TNF-α production induced by LPS (plasma TNF-α); assay: In vivo test: plasma TNF-α level in LPS-administered mice; conditions: female mice; 10 mg/kg subcutaneously immediately after LPS i.p.; plasma one hour after LPS; mouse TNF-α ELISA
Method: (§1) Each candidate compound was inspected for the effect of inhibiting TNF-α production induced by the stimulation with lipopolysaccharide (LPS), by an in vitro or in vivo test according to the method proposed by McGeehan et al. (Nature, 1994, 370:558-561).
Animals used herein were about 7-week-old female mice (5 animals per group) having a body weight of about 20 g. The LPS herein used was derived from Salmonella and it was dissolved in phosphate-buffered physiological saline prior to the practical use (20 μg/ml). Each candidate compound was dissolved or suspended in a 2% dimethyl sulfoxide-containing physiological saline to give a uniform solution or suspension (1 mg/ml).
The LPS solution (10 ml/kg) prepared above was intraperitoneally administered to each test mouse. Immediately after the administration of the LPS solution, the solution of each candidate compound prepared above (10 ml/kg, containing 10 mg/kg of the candidate compound) was subcutaneously injected to each animal. After one hour from the administration of the LPS, each animal was decapitated, the blood was collected from the animal and the blood was centrifuged at 4° C., 3000 rpm for 5 minutes. The resulting plasma was inspected for the level of TNF-α using the mouse TNF-α -specific ELISA kit. In this connection, any TNF-α was not detected in the plasma derived from the animal group free of the LPS-administration (control group).
The rate of TNF-α production-inhibitory effect observed for each candidate compound was determined according to the following equation:
Inhibitory Rate (%)=100×(A−B)/A
Wherein A is the level of TNF-α detected in the plasma derived from the animal group to which any candidate compound was not administered and B is the level of TNF-α detected in the plasma derived from the animal group to which a candidate compound was administered.

[2] = system: TNF-α produced by the human monocyte strain THP-1; assay: In vitro test: TNF-α production by THP-1 cells induced by stimulation with LPS; format: cell-based; conditions: 2 h; compound 10^−5M; THP-1 cells 10^6 cells/ml; LPS 2 μg/ml; 37° C., two hours; human TNF-α ELISA; read-out: Inhibitory Rate (%) of TNF-α production
Method: as §1
The test was carried out by, determining the amount of TNF-α produced by the human monocyte strain THP-1 induced by the stimulation with LPS.
The culture medium used in this test was RPMI 1640 culture medium supplemented wiTNFetal calf serum (10%), L-glutamine (2 mM), 2-mercaptoethanol (50 μM), penicillin (50 units/ml) and streptomycin (50 μg/ml).
Regarding the cells, the human monocyte strain THP-1 cells cultivated in the foregoing culture medium were centrifuged at 100 xg for 5 minutes to remove the supernatant and then again suspended in a fresh culture medium prior to the practical use. The LPS used herein was derived from S. Typhimurium and this was dissolved in purified water and then diluted with the culture medium prior to use. Each compound to be tested was dissolved in dimethyl sulfoxide (DMSO) and diluted with the culture medium prior to the practical use.
The cells (10^6 cells/ml) prepared according to the foregoing method were admixed with the LPS (2 μg/ml) and a compound to be tested (10^−5M), the cells were incubated at 37° C. for two hours and then centrifuged at 1000 xg for 5 minutes. The resulting supernatant of the culture medium was inspected for the level of TNF-α using the human TNF-α -specific ELISA kit. In this connection, it was confirmed that the supernatant obtained by cultivating the cells in the culture medium free of any LPS (control) never included any TNF-α.
The rate of the TNF-α production inhibitory effect observed for each candidate compound was determined according to the following equation: […]
Wherein A is the level of TNF-α detected in the supernatant obtained from the culture medium free of any candidate compound and B is the level of TNF-α detected in the supernatant obtained from the culture medium containing a candidate compound.

SMILES	Inhibitory Rate (%) of TNF-α production [1] [%]	inhibition at 10 µM [2] [%]	melting point
CC(=O)SCCN(CCC1CCCCC1)C(=O)NCC1CCN(C)CC1.Cl [Compound 6-3, 1-[2-(Acetylthio)ethyl]-1-(2-cyclohexylethyl)-3-[(1-methyl-4-piperidyl)-methyl]urea hydrochloride]	50	–	–
CC(=O)SCCN(CCC1CCCCC1)C(=O)NCCN1CCC(N(C)C)CC1.Cl.Cl [Compound 6-2, 1-[2-(Acetylthio)ethyl]-1-(2-cyclohexylethyl)-3-[2-[4-(dimethylamino)-1-piperidyl]ethyl]urea di-hydrochloride]	–	58	170 °C (dec.)
O=C(NCC1CCN(C(=O)OCc2ccccc2)CC1)N(CCO)CCC1CCCCC1 [Compound 1-18, 1-[[1-(Benzyloxycarbonyl)-4-piperidyl]methyl]-3-(2-cyclohexylethyl)-3-(2-hydroxy-ethyl) urea]	–	–	94.5 to 95.5 °C
CC(=O)SCCN(CCc1ccccc1)C(=O)N[C@@H](Cc1ccccc1)CN1CCN(C)CC1 [Compound 3-6, 1-[2-(Acetylthio)ethyl]-3-[(1S)-1-benzyl-2-(4-methylpiperazin-1-yl)ethyl]-1-phenethyl urea]	–	94	–
CC(=O)SCCN(CCC1CCCCC1)C(=O)NCCCN1CCCC1 [Compound 3-3, 1-[2-(Acetylthio)ethyl]-1-(2-cyclohexylethyl)-3-[3-(1-pyrrolidinyl)propyl]-urea]	64	–	–
CSCCN(CCC1CCCCC1)C(=O)NCCN1CCCCC1.Cl [Compound 6-4, 1-(2-Cyclohexylethyl)-1-[2-(methylthio)ethyl]-3-[2-(1-piperidyl)ethyl]urea hydrochloride]	59	–	–
CC(=O)SCCN(CCC1CCCCC1)C(=O)NCCN1CCCC1 [Compound 3-2, 1-[2-(Acetylthio)ethyl]-1-(2-cyclohexylethyl)-3-[2-(1-pyrrolidinyl)ethyl]-urea]	50	–	–
CC(=O)SCCN(CCC1CCCCC1)C(=O)NCCCN1CCCCC1 [Compound 3-4, 1-[2-(Acetylthio)ethyl]-1-(2-cyclohexylethyl)-3-[3-(1-piperidyl)propyl]urea]	51	–	–
CC(=O)SCCN(CCC1CCCCC1)C(=O)NCCN1CCCCCC1 [Compound 3-9, 1-[2-(Acetylthio)ethyl]-1-(2-cyclohexylethyl)-3-[2-(l-homopiperidyl)ethyl]-urea]	76	–	–
CC(=O)SCCN(CCC1CCCCC1)C(=O)NCCN1CCCCC1.Cl [Compound 6-1, 1-[2-(Acetylthio)ethyl]-1-(2-cyclohexylethyl)-3-[2-(1-piperidyl)-ethyl]urea hydrochloride]	78	–	–
CC(=O)SCCN(CCC1CCCCC1)C(=O)NCCN1CC=CCC1 [Compound 3-13, 1-[2-(Acetylthio)ethyl]-1-(2-cyclohexylethyl)-3-[2-(1,2,5,6-tetrahydropyridin-1-yl)ethyl] urea]	–	66	–
CCN1CCCC1CNC(=O)N(CCSC(C)=O)CCC1CCCCC1 (racemic) [Compound 3-17, 1-[2-(Acetylthio)ethyl]-1-(2-cyclohexylethyl)-3-[[(2RS)-1-ethyl-2-pyrrolidinyl]methyl] urea]	52	–	–
